Results as given in patent publication US10336762B2 (priority 2017, dated 2019).

What was measured:
TNFα = test: cells; assay type: cell-based, human; conditions: Homo sapiens, Monocyte, LPS-stimulated human monocytes, TNFα content; read-out: EC50 TNF
IRAK4 enzyme = IRAK4 enzyme (Homo sapiens (Human), UniProt Q9NWZ3); test: biochemical; assay type: biochemical; conditions: IRAK4 enzyme, TR-FRET (HTRF), 500 μM ATP
Chain of IRAK4 enzyme (Q9NWZ3 whole entry): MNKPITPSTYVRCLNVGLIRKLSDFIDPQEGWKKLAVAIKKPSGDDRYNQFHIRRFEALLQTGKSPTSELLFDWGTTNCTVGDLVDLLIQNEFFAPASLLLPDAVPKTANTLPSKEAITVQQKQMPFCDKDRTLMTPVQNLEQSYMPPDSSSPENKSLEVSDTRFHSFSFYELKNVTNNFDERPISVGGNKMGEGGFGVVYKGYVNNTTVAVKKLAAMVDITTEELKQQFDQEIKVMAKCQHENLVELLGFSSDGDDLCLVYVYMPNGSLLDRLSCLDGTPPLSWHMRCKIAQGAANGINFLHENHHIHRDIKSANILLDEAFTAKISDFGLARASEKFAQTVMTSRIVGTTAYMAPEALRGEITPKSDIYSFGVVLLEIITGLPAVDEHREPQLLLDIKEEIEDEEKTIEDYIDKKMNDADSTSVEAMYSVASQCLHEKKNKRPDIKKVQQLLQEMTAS

| SMILES | EC50 (TNFα) [nM] | IC50 (IRAK4 enzyme) [nM] |
| --- | --- | --- |
| CC(C)(O)[C@H](F)CNC(=O)c1cnc(-c2ccc3cc(C#N)cnn23)cc1Nc1ncc(F)cn1 [Example 584, (R)-6-(3-cyanopyrrolo[1,2-b]pyridazin-7-yl)-N-(2-fluoro-3-hydroxy-3-methylbutyl)-4-((5-fluoro-pyrimidin-2-yl)amino)nicotinamide] | 274 | 4 |
| Cc1cc(Nc2cc(-c3ccc4cc(C#N)cnn34)ncc2C(=O)NC[C@@H](F)C(C)(C)O)ncc1C#N [Example 585, (R)-4-((5-cyano-4-methyl-pyridin-2-yl)amino)-6-(3-cyanopyrrolo[1,2-b]pyridazin-7-yl)-N-(2-fluoro-3-hydroxy-3-methyl-butyl)nicotinamide] | 104 | 2 |
| CC(C)(O)[C@H](F)CNC(=O)c1cnc(-c2ccc3cc(C#N)cnn23)cc1Nc1ccc(Cl)cn1 [Example 586, (R)-4-((5-chloropyridin-2-yl)amino)-6-(3-cyano-pyrrolo[1,2-b]pyridazin-7-yl)-N-(2-fluoro-3-hydroxy-3-methylbutyl) nicotinamide] | 118 | 1 |
| CC(C)(O)[C@H](F)CNC(=O)c1cnc(-c2ccc3cc(C#N)cnn23)cc1Nc1ncccn1 [Example 587, (R)-6-(3-cyanopyrrolo[1,2-b]pyridazin-7-yl)-N-(2-fluoro-3-hydroxy-3-methyl-butyl)-4-(pyrimidin-2-ylamino)nicotinamide] | 150 | 3 |
| CC(C)(O)[C@H](F)CNC(=O)c1cnc(-c2ccc3cc(C#N)cnn23)cc1Nc1cccnn1 [Example 588, (R)-6-(3-cyanopyrrolo[1,2-b]pyridazin-7-yl)-N-(2-fluoro-3-hydroxy-3-methylbutyl)-4-(pyridazin-3-ylamino)nicotinamide] | 412 | 3 |
| CC(C)(O)[C@H](F)CNC(=O)c1cnc(-c2ccc3cc(C#N)cnn23)cc1Nc1ccccc1 [Example 589, (R)-6-(3-cyanopyrrolo[1,2-b]pyridazin-7-yl)-N-(2-fluoro-3-hydroxy-3-methylbutyl)-4-(phenylamino)nicotinamide] | 95 | < 1 |
| COc1ncc(Nc2cc(-c3ccc4cc(C#N)cnn34)ncc2C(=O)NC[C@@H](F)C(C)(C)O)cn1 [Example 590, (R)-6-(3-cyanopyrrolo[1,2-b]pyridazin-7-yl)-N-(2-fluoro-3-hydroxy-3-methylbutyl)-4-((2-methoxypyrimidin-5-yl)amino)nicotinamide] | 38 | < 1 |
| CC(C)(O)[C@H](F)CNC(=O)c1cnc(-c2ccc3cc(C#N)cnn23)cc1Nc1ccnc(F)c1 [Example 591, (R)-6-(3-cyanopyrrolo[1,2-b]pyridazin-7-yl)-N-(2-fluoro-3-hydroxy-3-methylbutyl)-4-((2-fluoro-pyridin-4-yl)amino) nicotinamide] | 180 | 2 |
| CC(C)(O)[C@H](F)CNC(=O)c1cnc(-c2ccc3cc(C#N)cnn23)cc1Nc1cncc(C(N)=O)c1 [Example 592, (R)-4-((5-carbamoyl-pyridin-3-yl)amino)-6-(3-cyanopyrrolo[1,2-b]pyridazin-7-yl)-N-(2-fluoro-3-hydroxy-3-methylbutyl) nicotinamide] | 222 | 1 |
| CC(C)(O)[C@H](F)CNC(=O)c1cnc(-c2ccc3cc(C#N)cnn23)cc1Nc1ccncc1 [Example 593, (R)-6-(3-cyano-pyrrolo[1,2-b]pyridazin-7-yl)-N-(2-fluoro-3-hydroxy-3-methylbutyl)-4-(pyridin-4-ylamino) nicotinamide] | 143 | 2 |
| COC(=O)c1cncc(Nc2cc(-c3ccc4cc(C#N)cnn34)ncc2C(=O)NC[C@@H](F)C(C)(C)O)c1 [Example 594, (R)-methyl 5-((2-(3-cyanopyrrolo[1,2-b]pyridazin-7-yl)-5-((2-fluoro-3-hydroxy-3-methylbutyl)carbamoyl)pyridin-4-yl)amino) nicotinate] | 316 | 2 |
| Cc1ncc(Nc2cc(-c3ccc4cc(C#N)cnn34)ncc2C(=O)NC[C@@H](F)C(C)(C)O)cn1 [Example 595, (R)-6-(3-cyano-pyrrolo[1,2-b]pyridazin-7-yl)-N-(2-fluoro-3-hydroxy-3-methylbutyl)-4-((2-methylpyrimidin-5-yl)amino)nicotinamide] | 107 | < 1 |
| CC(C)(O)[C@H](F)CNC(=O)c1cnc(-c2ccc3cc(C#N)cnn23)cc1Nc1cnc(C#N)nc1 [Example 596, (R)-4-((2-cyano-pyrimidin-5-yl)amino)-6-(3-cyanopyrrolo[1,2-b]pyridazin-7-yl)-N-(2-fluoro-3-hydroxy-3-methylbutyl) nicotinamide] | > 10000 | 3 |
| CC(C)(O)[C@H](F)CNC(=O)c1cnc(-c2ccc3cc(C#N)cnn23)cc1Nc1ccc(OC(F)F)nc1 [Example 597, (R)-6-(3-cyano-pyrrolo[1,2-b]pyridazin-7-yl)-4-((6-(difluoro-methoxy)pyridin-3-yl)amino)-N-(2-fluoro-3-hydroxy-3-methylbutyl) nicotinamide] | 106 | 1 |
| COc1cc(Nc2cc(-c3ccc4cc(C#N)cnn34)ncc2C(=O)NC[C@@H](F)C(C)(C)O)ccn1 [Example 598, (R)-6-(3-cyano-pyrrolo[1,2-b]pyridazin-7-yl)-N-(2-fluoro-3-hydroxy-3-methyl-butyl)-4-((2-methoxy-pyridin-4-yl)amino) nicotinamide] | 106 | < 1 |
| CC(C)(O)[C@H](F)CNC(=O)c1cnc(-c2ccc3cc(C#N)cnn23)cc1Nc1ccc(F)nc1 [Example 599, (R)-6-(3-cyano-pyrrolo[1,2-b]pyridazin-7-yl)-N-(2-fluoro-3-hydroxy-3-methylbutyl)-4-((6-fluoro-pyridin-3-yl)amino) nicotinamide] | 68 | < 1 |
| CC(C)(O)[C@H](F)CNC(=O)c1cnc(-c2ccc3cc(C#N)cnn23)cc1Nc1cncc(F)c1 [Example 600, (R)-6-(3-cyano-pyrrolo[1,2-b]pyridazin-7-yl)-N-(2-fluoro-3-hydroxy-3-methylbutyl)-4-((5-fluoropyridin-3-yl)amino)nicotinamide] | 72 | < 1 |
| CC(C)(O)[C@H](F)CNC(=O)c1cnc(-c2ccc3cc(C#N)cnn23)cc1Nc1ccc(C(N)=O)nc1 [Example 601, (R)-5-((2-(3-cyano-pyrrolo[1,2-b]pyridazin-7-yl)-5-((2-fluoro-3-hydroxy-3-methylbutyl)carbamoyl)pyridin-4-yl)amino) picolinamide] | 64 | < 1 |
| COc1ccc(Nc2cc(-c3ccc4cc(C#N)cnn34)ncc2C(=O)NC[C@@H](F)C(C)(C)O)cn1 [Example 602, (R)-6-(3-cyanopyrrolo[1,2-b]pyridazin-7-yl)-N-(2-fluoro-3-hydroxy-3-methylbutyl)-4-((6-methoxy-pyridin-3-yl)amino) nicotinamide] | 70 | < 1 |
| CC(C)(O)[C@H](F)CNC(=O)c1cnc(-c2ccc3cc(C#N)cnn23)cc1Nc1ccc(C#N)nc1 [Example 603, (R)-4-((6-cyanopyridin-3-yl)amino)-6-(3-cyano-pyrrolo[1,2-b]pyridazin-7-yl)-N-(2-fluoro-3-hydroxy-3-methylbutyl)nicotinamide] | 81 | 1 |
| COc1cc(Nc2cc(-c3ccc4cc(C#N)cnn34)ncc2C(=O)NC[C@@H](F)C(C)(C)O)ccc1C(N)=O [Example 604, (R)-4-((4-carbamoyl-3-methoxyphenyl)amino)-6-(3-cyanopyrrolo[1,2-b]pyridazin-7-yl)-N-(2-fluoro-3-hydroxy-3-methylbutyl)nicotinamide] | 283 | 7 |
| COc1cncc(Nc2cc(-c3ccc4cc(C#N)cnn34)ncc2C(=O)NC[C@@H](F)C(C)(C)O)c1 [Example 605, (R)-6-(3-cyanopyrrolo[1,2-b]pyridazin-7-yl)-N-(2-fluoro-3-hydroxy-3-methyl-butyl)-4-((5-methoxy-pyridin-3-yl)amino) nicotinamide] | 24 | < 1 |
| COc1cccc(Nc2cc(-c3ccc4cc(C#N)cnn34)ncc2C(=O)NC[C@@H](F)C(C)(C)O)c1 [Example 606, (R)-6-(3-cyanopyrrolo[1,2-b]pyridazin-7-yl)-N-(2-fluoro-3-hydroxy-3-methylbutyl)-4-((3-methoxyphenyl)amino) nicotinamide] | 33 | 1 |
| CC(C)(O)[C@H](F)CNC(=O)c1cnc(-c2ccc3cc(C#N)cnn23)cc1Nc1cccc(OC(F)F)c1 [Example 608, (R)-6-(3-cyanopyrrolo[1,2-b]pyridazin-7-yl)-4-((3-(difluoromethoxy)phenyl)amino)-N-(2-fluoro-3-hydroxy-3-methylbutyl) nicotinamide] | 123 | 1 |
| COc1ccc(Nc2cc(-c3ccc4cc(C#N)cnn34)ncc2C(=O)NC[C@@H](F)C(C)(C)O)cc1 [Example 609, (R)-6-(3-cyanopyrrolo[1,2-b]pyridazin-7-yl)-N-(2-fluoro-3-hydroxy-3-methylbutyl)-4-((4-methoxyphenyl)amino) nicotinamide] | 35 | < 1 |
| CC(C)(O)[C@H](F)CNC(=O)c1cnc(-c2ccc3cc(C#N)cnn23)cc1Nc1cncc(C#N)c1 [Example 610, (R)-4-((5-cyanopyridin-3-yl)amino)-6-(3-cyano-pyrrolo[1,2-b]pyridazin-7-yl)-N-(2-fluoro-3-hydroxy-3-methylbutyl)nicotinamide] | 50 | < 1 |
| COc1cc(Nc2cc(-c3ccc4cc(C#N)cnn34)ncc2C(=O)NC[C@@H](F)C(C)(C)O)ccc1C#N [Example 611, (R)-4-((4-cyano-3-methoxy-phenyl)amino)-6-(3-cyanopyrrolo[1,2-b]pyridazin-7-yl)-N-(2-fluoro-3-hydroxy-3-methylbutyl)nicotinamide] | > 10000 | 15 |
| CC1(Nc2cc(-c3ccc4cc(C#N)cnn34)ncc2C(=O)NCC#N)COC1 [Example 612, N-(cyanomethyl)-6-(3-cyanopyrrolo[1,2-b]pyridazin-7-yl)-4-((3-methyloxetan-3-yl)amino)nicotinamide] | 51 | < 1 |
